Assay results published in US20110065734A1, “NOVEL BIFUNCTIONAL COMPOUNDS WHICH INHIBIT PROTEIN KINASES AND HISTONE DEACETYLASES” (4SC AG, priority 2007, published 2011).
Structures can show the parent of a compound that is named as a salt. Where two headings read alike, the source gives them in different places. Each block holds one compound with its values, some of them ahead of it.

Legend:
[1] = molecular target: T1, EGFR/HER1 (Homo sapiens, UniProt P00533); test: Biochemical flash-plate based kinase assay, EGFR/HER1; conditions: only a range over the listed compounds is given; read-out: EGFR/HER1 inhibition IC50
T1 construct: EGFR/HER1 C-terminal kinase domain; made in house
T1 sequence (P00533 712-979 limits assumed): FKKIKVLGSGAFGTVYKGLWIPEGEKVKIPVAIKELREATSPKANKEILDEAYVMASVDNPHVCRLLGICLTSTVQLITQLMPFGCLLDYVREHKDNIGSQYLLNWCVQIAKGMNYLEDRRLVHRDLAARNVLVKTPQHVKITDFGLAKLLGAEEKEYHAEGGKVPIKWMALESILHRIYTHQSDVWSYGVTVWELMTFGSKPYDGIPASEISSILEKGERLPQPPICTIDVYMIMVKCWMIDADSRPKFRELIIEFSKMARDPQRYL
Source text: (§1) Active kinase proteins were either obtained from commercial suppliers (Abl, PDGF-Rβ ProQinase, Freiburg/Germany; AblT^315I: Millipore/Upstate, Billerica/USA; PKA: InvitroGen/Panvera, Carlsbad/USA) or prepared in-house (KDR, c-terminal kinase domain AA790-1356, HER2 c-terminal kinase domain, EGFR/HER1 C-terminal kinase domain). As substrates, poly-AGKY for Abl, AblT^315I and PDGF-Rβ (#P-1152 Sigma, Munich/Germany), poly-GluTyr for KDR, HER2 and EGFR/HER1 (#P-0275, Sigma, Munich/Germany) or a PKA substrate peptide for PKA (#12-394, Millipore/Upstate, Billerica/USA) were used. Into each well of a 96-well flashplate (#SMP-200 in the case of Abl, Abl T^315I, PDGF-Rβ, EGFR, HER2 and KDR, #SMP-103 in the case of PKA; Perkin Elmer, Waltham/USA) kinase protein was diluted into kinase assay buffer (50 mM HEPES pH 7.5, 3 mM MgCl2, 3 mM MnCl2, 1 mM DTT, 3 μM sodium orthovanadate, 5 μg/ml PEG 8000) containing the appropriate substrate (final volume 89 μl). DMSO vehicle or compounds are added as 1 μl/well prior to the initiation of the kinase reaction by 10 μl 1 mM [^33P]-γATP (4×10^5 cpm). Reactions were allowed to proceed for a time predetermined to be linear on a time versus phosphorylation plot (30 min for PKA, otherwise 80 min) and terminated with the addition of an equal volume of phosphoric acid (2% H3PO4 for 5 minutes). Plates were washed three times with 0.9% w/v NaCl and quantitated by liquid scintillation counting.

[2] = molecular target: T2, recombinant HDAC1 isolated from HEK293 cells with heterologous HDAC1 expression (Homo sapiens, UniProt Q13547); test: Fluorimetric rHDAC1 activity assay; format: biochemical; conditions: only a range of IC50 over the compounds given; read-out: rHDAC1 inhibitory activity IC50
T2 construct: made in house
T2 sequence (Q13547 whole entry): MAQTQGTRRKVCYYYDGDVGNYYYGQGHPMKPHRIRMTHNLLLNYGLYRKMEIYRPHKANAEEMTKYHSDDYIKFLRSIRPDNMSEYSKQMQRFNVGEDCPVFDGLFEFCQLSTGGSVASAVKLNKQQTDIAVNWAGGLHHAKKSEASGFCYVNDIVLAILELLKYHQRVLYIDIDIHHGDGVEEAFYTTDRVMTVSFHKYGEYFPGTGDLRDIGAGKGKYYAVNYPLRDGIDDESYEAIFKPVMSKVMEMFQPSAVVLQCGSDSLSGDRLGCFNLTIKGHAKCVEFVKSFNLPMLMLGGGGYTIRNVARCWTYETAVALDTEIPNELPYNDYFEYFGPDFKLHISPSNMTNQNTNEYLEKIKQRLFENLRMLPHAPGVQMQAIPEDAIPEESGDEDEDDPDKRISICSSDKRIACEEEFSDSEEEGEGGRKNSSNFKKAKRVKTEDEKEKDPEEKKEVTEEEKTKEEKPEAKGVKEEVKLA

[3] = tested on: histone H3 hyperacetylation in HeLa cervical carcinoma cells; test: Cellular histone H3 hyperacetylation assay; format: cell-based; conditions: Homo sapiens, 24 h, only a range over the listed compounds is given, read-out: Induction of histone H3 hyperacetylation in HeLa cervical carcinoma cells EC50
Source text: To assess the cellular efficacy of a histone deacetylase inhibitor in vitro, an assay was set up in black clear-bottom 96-well plates and optimized for use on the Cellomics “ArrayScan II” platform for a quantitative calculation of histone acetylation. The protocol uses a polyclonal rabbit antibody, specifically binding to acetylated lysine 1-20 of human histone H3 on fixed cells with an Alexa Fluor 488 labeled goat anti rabbit-IgG used for counterstaining (Beckers et al. Int J. Cancer 121, 1138, 2007).
5×10^3 HeLa cervical carcinoma cells/well (ATCC. CCL-2) in 200 μl Dulbecco rs modified Eagle's medium (DMEM) containing 10% fetal calf serum are seeded at day 1 in Packard view plates and incubated for 24 h under standard cell culture conditions. On day 2, 1 μl test compound (200× final concentration) is added and incubation continued for further 24 h. On day 3, the culture medium is discarded and attached cells fixed for 15 min at room temperature by addition of 100 μl fixation buffer (3.7% v:v formaldehyde in phosphate buffered saline/PBS). After discarding the fixation buffer and one wash with blocking solution (1% BSA, 0.3% Tween 20 in PBS), cells are permeabilized at room temperature by addition of 100 μl/well permeabilization buffer (30.8 mM NaCl, 0.54 mM Na2HPO4, 0.31 mM KH2PO4, 0.1% v:v Triton X-100) for 15 min at room temperature. After discarding the permeabilization buffer and washing twice with 100 μl/well blocking solution at room temperature, the 1st antibody (anti-K^1-20 histone H3 antibody, Calbiochem No. 382158) in blocking solution (50 μl/well) is added. After incubation for 1 h at room temperature, the wells are washed twice at room temperature with 100 μl/well blocking solution before addition of the 2nd antibody (goat-anti-rabbit Alexa Fluor 488; MoBiTec No. A-11008) in blocking solution (50 μl/well). After further incubation for 1 h at room temperature, wells are washed twice with 100 μl/well blocking solution at room temperature. Finally, 100 μl/well PBS are added and image analysis performed on the Cellomics “ArrayScan II” platform. For EC50 determination, the percentage of positive cells showing nuclear fluorescence is determined and EC50 calculation done from concentration-effect curves by means of non-linear regression. For calibration, a positive (reference HDAC inhibitors like SAHA or NVP LBH-589) and a negative control were included.

[4] = tested on: A549 NSCLC cell line; test: Cellular cytotoxicity assay (Alamar Blue), A549; format: cell-based; conditions: Homo sapiens
Protocol: (§2) The anti-proliferative activity of the chimeric HDAC and protein kinase inhibitory chimeric compounds of the present invention was evaluated using HeLa cervical carcinoma, A549 NSCLC, SKOV3 ovarian carcinoma, Cal27 head and neck cancer, K562 chronic myeloid leukemia (CML) and EOL1 acute hypereosinophilic myeloid leukemia, cell lines. For quantification of cellular proliferation/living cells the Alamar Blue (Resazurin) cell viability assay was applied (O'Brien et al. Eur Biochem. 267, 5421-5426, 2000). In this assay Resazurin is reduced to the fluorescent resorufin by cellular dehydrogenase activity, correlating with viable, proliferating cells. The examples were dissolved as 20 mM solutions in dimethylsulfoxide (DMSO) and subsequently diluted in semi-logarithmic steps. Cell lines were seeded at respective density into 96 well flat bottom plates in a volume of 200 μl per well. 24 h after seeding 1 μl each of the compound dilutions were added into each well of the 96 well plate. Each compound dilution was tested as quadruplicates. Wells containing untreated control cells were filled with […] DMEM medium containing 0.5% v:v DMSO. The cells were then incubated with the substances for 72 h at 37° C. in a humidified atmosphere containing 5% carbon dioxide. To determine the viability of the cells, 20 μl of an Resazurin solution (Sigma; 90 mg/l) were added. After 4 h incubation at 37° C. the fluorescence was measured at an extinction of 544 nm and an emission of 590 nm. For the calculation of the cell viability the emission value from untreated cells was set as 100% viability and the emission rates of treated cells were set in relation to the values of untreated cells. Viabilities were expressed as % values. The corresponding IC50 values of the compounds for cytotoxic activity are determined from the concentration-effect curves by means of non-linear regression.

[5] = molecular target: T3, Protein kinase A (PKA) (Homo sapiens, UniProt P17612); test: Biochemical flash-plate based kinase assay, PKA
T3 construct: purchased InvitroGen/Panvera, Carlsbad/USA
Source text: as §1

[6] = molecular target: T4, Bcr-abl (wt) (Homo sapiens, UniProt P00519); test: Biochemical flash-plate based kinase assay, Bcr-abl (wt); conditions: only a range over the listed compounds is given; read-out: Bcr-abl (wt) inhibition IC50
T4 construct: purchased ProQinase, Freiburg/Germany
T4 sequence (P00519 118-553 limits assumed): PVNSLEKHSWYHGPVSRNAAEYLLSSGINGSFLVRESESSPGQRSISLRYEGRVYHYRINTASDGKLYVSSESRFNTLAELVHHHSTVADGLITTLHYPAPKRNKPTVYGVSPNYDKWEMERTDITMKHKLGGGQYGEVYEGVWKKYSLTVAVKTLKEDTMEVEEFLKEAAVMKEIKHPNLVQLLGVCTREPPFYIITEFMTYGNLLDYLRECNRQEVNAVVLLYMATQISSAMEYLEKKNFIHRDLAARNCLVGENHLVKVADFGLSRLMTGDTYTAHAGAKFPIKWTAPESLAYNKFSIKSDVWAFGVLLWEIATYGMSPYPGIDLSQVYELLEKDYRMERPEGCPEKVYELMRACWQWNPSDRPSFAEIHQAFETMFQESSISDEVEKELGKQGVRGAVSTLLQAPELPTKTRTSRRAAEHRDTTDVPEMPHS
Source text: as §1

[7] = molecular target: T5, Bcr-abl T^315I (Homo sapiens, UniProt P00519, T315I); test: Biochemical flash-plate based kinase assay, Bcr-abl T315I; conditions: only a range over the listed compounds is given; read-out: Bcr-abl T^315I inhibition IC50
T5 construct: purchased Millipore/Upstate, Billerica/USA
Source text: as §1

[8] = molecular target: T6, PDGFRβ (Homo sapiens, UniProt P09619); test: Biochemical flash-plate based kinase assay, PDGFRβ; conditions: only a range over the listed compounds is given; read-out: PDGFRβ inhibition IC50
T6 construct: purchased ProQinase, Freiburg/Germany
T6 sequence (P09619 33-1106): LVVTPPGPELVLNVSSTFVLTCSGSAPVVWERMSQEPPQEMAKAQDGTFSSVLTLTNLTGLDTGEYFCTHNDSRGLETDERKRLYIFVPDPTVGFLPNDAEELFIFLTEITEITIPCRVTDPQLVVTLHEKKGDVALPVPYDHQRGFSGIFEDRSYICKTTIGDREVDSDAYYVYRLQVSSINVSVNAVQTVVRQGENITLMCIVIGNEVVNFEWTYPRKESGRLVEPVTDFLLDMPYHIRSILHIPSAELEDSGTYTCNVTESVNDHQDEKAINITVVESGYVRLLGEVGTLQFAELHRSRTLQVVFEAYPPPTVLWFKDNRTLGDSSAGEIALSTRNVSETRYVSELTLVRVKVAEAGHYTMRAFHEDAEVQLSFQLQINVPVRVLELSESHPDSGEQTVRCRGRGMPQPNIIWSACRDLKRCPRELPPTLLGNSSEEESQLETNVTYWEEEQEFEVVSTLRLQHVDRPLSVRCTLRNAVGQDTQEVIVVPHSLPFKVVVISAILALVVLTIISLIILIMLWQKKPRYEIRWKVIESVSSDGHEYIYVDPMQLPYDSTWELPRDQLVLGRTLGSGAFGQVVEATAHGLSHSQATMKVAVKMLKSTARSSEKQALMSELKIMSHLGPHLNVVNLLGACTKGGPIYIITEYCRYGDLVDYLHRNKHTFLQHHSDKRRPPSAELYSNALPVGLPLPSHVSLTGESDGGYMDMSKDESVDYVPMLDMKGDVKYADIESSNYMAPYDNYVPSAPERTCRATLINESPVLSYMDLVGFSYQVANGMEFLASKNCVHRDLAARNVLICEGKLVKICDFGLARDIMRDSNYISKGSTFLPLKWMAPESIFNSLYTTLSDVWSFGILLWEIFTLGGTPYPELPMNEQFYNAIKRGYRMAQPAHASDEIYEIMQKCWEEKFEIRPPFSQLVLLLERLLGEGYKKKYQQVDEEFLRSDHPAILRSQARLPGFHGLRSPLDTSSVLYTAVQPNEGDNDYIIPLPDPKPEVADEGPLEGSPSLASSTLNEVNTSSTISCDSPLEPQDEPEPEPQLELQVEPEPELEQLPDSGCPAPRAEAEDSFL
Source text: as §1

[9] = tested on: K562 chronic myeloid leukemia (CML) cell line; test: Cellular cytotoxicity assay (Alamar Blue), K562; format: cell-based; conditions: Homo sapiens, 72 h, only a range over the listed compounds is given, read-out: Cytotoxicity towards K562 CML cell line IC50
Protocol: as §2

[10] = tested on: HeLa cervical carcinoma cell line; test: Cellular cytotoxicity assay (Alamar Blue), HeLa; format: cell-based; conditions: Homo sapiens, 72 h, only a range over the listed compounds is given, read-out: Cytotoxicity towards HeLa cervical cell line IC50
Protocol: as §2

[11] = tested on: EOL1 acute hypereosinophilic myeloid leukemia cell line; test: Cellular cytotoxicity assay (Alamar Blue), EOL1; format: cell-based; conditions: Homo sapiens, 72 h, only a range over the listed compounds is given, read-out: Cytotoxicity towards EOL1 cell line IC50
Protocol: as §2

[12] = tested on: Cal27 head and neck cancer cell line; test: Cellular cytotoxicity assay (Alamar Blue), Cal27; format: cell-based; conditions: Homo sapiens, CAL-27; 72 h; only a range over the listed compounds is given; read-out: Cytotoxicity towards Cal27 cell line IC50
Protocol: as §2

[13] = molecular target: T7, HER2 (Homo sapiens, UniProt P04626); test: Biochemical flash-plate based kinase assay, HER2; conditions: only a range over the listed compounds is given; read-out: HER2 inhibition IC50
T7 construct: HER2 c-terminal kinase domain; made in house
T7 sequence (P04626 720-987 limits assumed): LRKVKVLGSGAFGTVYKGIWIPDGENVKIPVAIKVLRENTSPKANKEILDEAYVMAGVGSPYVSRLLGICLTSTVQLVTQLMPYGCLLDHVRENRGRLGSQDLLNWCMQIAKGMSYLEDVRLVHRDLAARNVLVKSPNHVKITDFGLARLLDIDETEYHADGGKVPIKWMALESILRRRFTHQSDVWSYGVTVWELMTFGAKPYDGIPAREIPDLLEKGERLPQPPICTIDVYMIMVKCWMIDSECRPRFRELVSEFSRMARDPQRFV
Source text: as §1, with “Reactions were allowed to proceed for a time predetermined to be linear on a time versus phosphorylation plot (30 min for PKA, otherwise 80 min) and terminated with the addition of an equal volume of phosphoric acid (2% H3PO4 for 5 minutes).” left out

[14] = tested on: SKOV3 ovarian carcinoma cell line; test: Cellular cytotoxicity assay (Alamar Blue), SKOV3; format: cell-based; conditions: Homo sapiens, SK-OV-3; 72 h; only a range over the listed compounds is given; read-out: Cytotoxicity towards SKOV3 cell line IC50
Protocol: as §2

[15] = A549, 72 h, only a range over the listed compounds is given, read-out: Cytotoxicity towards A549 NSCLC cell line IC50

Compound: O=C(/C=C/c1ccc(-c2ccc3ncnc(Nc4ccc(OCc5cccc(F)c5)c(Cl)c4)c3c2)o1)NO [[2], E-3-(5-{4-[3-Chloro-4-(3-fluorobenzyloxy)-phenylamino]quinazolin-6-yl}furan-2-yl)-N-hydroxy-acrylamide hydrochloride monohydrate]
- IC50 [1]: 2.2 to 150 nM
- IC50 [2]: ≥ 35.3 nM
- EC50 [3]: ≥ 3650 nM
- IC50 ([4]; A549, 72 h, read-out: Cytotoxicity towards A549 NSCLC cell line IC50 (M)): ≥ 1.1e-06 M

Compound: O=C(NO)c1ccc(-c2ccc3ncnc(Nc4ccc(OCc5cccc(F)c5)c(Cl)c4)c3c2)s1 [[4], 5-{4-[3-Chloro-4-(3-fluorobenzyloxy)phenyl-amino]quinazolin-6-yl}thiophene-2-carboxylic acid hydroxyamide hydrochloride dihydrate]
- IC50 [1]: 2.2 to 150 nM
- EC50 [3]: ≥ 3650 nM

- IC50 [5]: 35000 nM
Compound: O=C(/C=C/c1ccc(-c2ccc3ncnc(Nc4ccc(OCc5cccc(F)c5)c(Cl)c4)c3c2)s1)NO [[7], E-3-(5-{4-[3-Chloro-4-(3-fluorobenzyloxy)-phenylamino]quinazolin-6-yl}thiophene-2-yl)-N-hydroxy-acrylamide hydrochloride monohydrate]

- IC50 [6]: 2000 to 39000 nM
- IC50 [7]: 1000 to 34000 nM
- IC50 [8]: 2100 to 71000 nM
Compound: Cc1ccc(NCc2ccc(C(=O)Nc3ccccc3N)cc2)cc1Nc1nccc(-c2cccnc2)n1 [[15], N-(2-Amino-phenyl)-4-{[4-methyl-3-(4-pyridin-3-yl-pyrimidin-2-ylamino)-phenylamino]-methyl}-benzamide]
- IC50 [9]: 490 to 4070 nM
- IC50 [4, 15]: ≥ 2.95e-06 M
- IC50 [10]: ≥ 1150 nM

- IC50 [6]: 2000 to 39000 nM
- IC50 [2]: 77 to 1400 nM
- IC50 [7]: 1000 to 34000 nM
- IC50 [8]: 2100 to 71000 nM
Compound: Cc1ccc(NC(=O)c2ccc(/C=C/C(=O)NO)cc2)cc1Nc1nc(-c2cccnc2)cs1 [[19], (E)-4-(3-(hydroxyamino)-3-oxoprop-1-enyl)-N-(4-methyl-3-(4-(pyridin-3-yl)thiazol-2-ylamino)phenyl)benzamide]
- IC50 [11]: 3 to 780 nM

- IC50 [5]: 38000 nM
- melting point: 204.6 °C (dec.)
- IC50 [7]: 1000 to 34000 nM
Compound: CN(C(=O)c1ccc(C(=O)Nc2ccccc2N)cc1)c1cccc(Nc2nccc(-c3cccnc3)n2)c1 [[30], N-(2-Amino-phenyl)-N′-methyl-N′-[3-(4-pyridin-3-yl-pyrimidin-2-ylamino)-phenyl]-terephthalamide]

- IC50 [6]: 2000 to 39000 nM
- melting point: 241.6 °C
- IC50 [7]: 1000 to 34000 nM
Compound: Cc1ccc(NC(=O)c2ccc(/C=C/C(=O)NO)s2)cc1Nc1nc(-c2cccnc2)cs1 [[33], (E)-5-(3-(hydroxyamino)-3-oxoprop-1-enyl)-N-(4-methyl-3-(4-(pyridin-3-yl)thiazol-2-ylamino)phenyl)thiophene-2-carboxamide]
- IC50 [4, 15]: ≥ 2.95e-06 M

- IC50 [1]: 2.2 to 150 nM
- melting point: 213 to 216 °C
Compound: C#Cc1cccc(Nc2ncnc3ccc(NC(=O)c4ccc(C(=O)Nc5ccccc5N)nc4)cc23)c1 [[36], N^2-(2-aminophenyl)-N^5-(4-(3-ethynylphenylamino)-quinazolin-6-yl)pyridine-2,5-dicarboxamide]
- IC50 [12]: 160 to 8000 nM

- IC50 [13]: 2 to 740 nM
Compound: C#Cc1cccc(Nc2ncnc3cc(NC(=O)c4ccc(C(=O)Nc5ccccc5N)nc4)ccc23)c1 [[39], Pyridine-2,5-dicarboxylic acid 2-[(2-amino-phenyl)-amide]-5-{[4-(3-ethynyl-phenylamino)-quinazolin-7-yl]-amide}]
- IC50 [14]: ≥ 560 nM
